Where two headings read alike, the source gives them in different places.
Assays:
[1] = Lewis acidity measuring method (1): reaction rate constant of reaction between CoTPP and oxygen in the presence of a Lewis acid; assay type: physicochemical
UM-UC-3 cells [2] = test system: UM-UC-3 cells
[3] = test system: various bladder cancer cells (UM-UC-3, UM-UC-2, EJ-1, BOY-12E, 5637); conditions: 120 minutes incubation
UM-UC-3 cells [4] = conditions: 500 ppm NaClO2 for 120 minutes
UM-UC-3 cells [5] = conditions: 500 ppm NaClO2 for 120 minutes, then 24 hours culture; PBS Control 14.6%
UM-UC-3 cells [6] = conditions: 500 ppm NaClO2 for 120 minutes, then 24 hours culture; vs PBS group
[7] = test system: bladder cancer clinical specimen-derived tumor
UM-UC-3 cells [8] = test system: UM-UC-3 cells; remark: listed apart in the source
[9] = test system: tongue cancer cells HSC-3; conditions: 60 minutes incubation, 48 hours culture
[10] = test system: oral cancer cells HO-1-u-1; conditions: 60 minutes incubation, 48 hours culture
colon cancer cells HT29 = conditions: 60 minutes incubation, 48 hours culture
colon cancer cells HT116 = conditions: 60 minutes incubation, 48 hours culture
[11] = test system: pancreatic cancer cells PK05; conditions: 48 hours
[12] = test system: pancreatic cancer cells PK10; conditions: 48 hours
[13] = concentration of 31 ppm or more

Q: For CCCC[N+](CCCC)(CCCC)CCCC.F[P-](F)(F)(F)(F)F [tetrabutylammonium hexafluorophosphate], which “kcat (reaction rate constant of reaction between CoTPP and oxygen in the presence of a Lewis acid)” value [1] is on record?
A: The value was greater than 0.1 M^−2 s^−1.

Q: Which “kcat (reaction rate constant of reaction between CoTPP and oxygen in the presence of a Lewis acid)” value ([1]; acetonitrile, saturated O2, room temperature) does the source give for benzalkonium chloride here?
A: Its value is 0.18 M^−2 s^−1.

Q: Which results are given for sodium chlorite [NaClO2]?
A: cell proliferation vs contact time (UM-UC-3 cells [2]; 500 ppm NaClO2, 30, 60, 90, 120 minutes): inhibited in a time-dependent manner; inhibition of cell proliferation (UM-UC-3 cells [2]; 500 ppm NaClO2, 120 minutes incubation, then 48 hours culture): more than 60%; proliferation inhibition vs concentration ([3]; then 48 hours culture): concentration-dependent proliferation inhibition; bladder cancer proliferation ([3]; at 500 ppm or more): almost completely inhibited; cell morphology (UM-UC-3 cells [4]; 0 hours after removal): morphological changes; cell morphology (UM-UC-3 cells [4]; 24 hours after removal): regression of cells; vesicle considered to be an apoptotic vesicle (UM-UC-3 cells [4]; 24 hours after removal, magnified photomicrograph): formation of a vesicle; apoptotic rate of UM-UC-3 cells (UM-UC-3 cells [5]): 43.8%; fraction ratio in subG1 phase (UM-UC-3 cells [6]): significantly increased; excised tumor photograph and tumor weight ([7]; tumor immersed in 500 ppm NaClO2, excised on day 27): increase in bladder tumors was inhibited; proliferation of bladder cancer tumors (tumor volume) ([7]; tumor immersed in 500 ppm NaClO2 for 120 minutes before transplantation, measured from day 12): significantly inhibited; reactive oxygen species detected, compared with MA-T (UM-UC-3 cells [8]; 100 ppm NaClO2 (A100) vs 100 ppm NaClO2 + 100 ppm benzethonium chloride): equivalent to or more than that with MA-T; reactive oxygen production (fluorescence plate reader) (UM-UC-3 cells [8]; 500 ppm NaClO2 alone): remarkable reactive oxygen production; fluorescence of active oxygen in cells (fluorescence microscopy) (UM-UC-3 cells [8]; 500 ppm NaClO2 alone, final concentration): remarkable active oxygen production; production of reactive oxygen species on contact with cells (fluorescence intensity) (UM-UC-3 cells [8]; over time): produced reactive acid species in a time-dependent manner; viability / proliferation of cancer cells [9]: effect of inhibiting proliferation of cancer cells; viability / proliferation of cancer cells [10]: effect of inhibiting proliferation of cancer cells; viability / proliferation of cancer cells (colon cancer cells HT29): effect of inhibiting proliferation of cancer cells; viability / proliferation of cancer cells (colon cancer cells HT116): effect of inhibiting proliferation of cancer cells; proliferation inhibitory effect vs concentration (viability) ([11]; 0-500 ppm): concentration-dependent proliferation inhibitory effect; pancreatic cancer cell proliferation [11, 13]: almost completely inhibited; proliferation inhibitory effect vs concentration (viability) ([12]; 0-500 ppm): concentration-dependent proliferation inhibitory effect; pancreatic cancer cell proliferation [12, 13]: almost completely inhibited

Source: patent publication US20230181628A1 (priority 2020, published 2023)
